Measurements published in patent US20220402982A1, “POLYPEPTIDE FRAGMENT D (MP-D) AND USE THEREOF” (SHANGHAI LONGXIN BIOMEDICAL TECHNOLOGY CO., LTD., priority 2021, published 2022).

What was measured:
DSS-induced IBD in mice [1] = assay: Colon length in DSS-induced acute IBD mouse model; assay type: in vivo, male C57BL6 mice; settings: 50 μg/kg intragastrically, 7 days pre-administration, then daily together with 2.5 wt % DSS; x±SD; model group 5.3±0.6, blank control 9.4±0.6; in cm (unit assumed)
Method: (§1) The administration of a DSS solution with a specified concentration to mice can induce an acute IBD model characterized by diarrhea, hematochezia, ulcer, and granulocyte infiltration. Mice were randomly grouped according to body weights of the mice. 40 healthy male C57BL6 mice were divided into four groups each with 10 mice:
(§2) blank control group: the mice were each intragastrically administered with water every day at a volume of 0.4 mL/20 g;
(§3) model group: the mice were each intragastrically administered with a DSS aqueous solution of a mass fraction of 2.5 wt % consecutively for 7 days, where the DSS aqueous solution was freshly prepared and changed every day; […]
The body weight changes of mice in each group were recorded every day to determine whether the acute IBD mouse model was successfully established.
(§4) A mouse colon between an anus end to an ileocecal end was integrally collected, and a length of the colon was measured; and the colon was dissected along a longitudinal axis, feces therein was rinsed off, and then the colon was stored in 4% […] or frozen at −80° C. […]

DSS-induced IBD in mice [2] = assay: Colonic histopathological evaluation (HE staining, scoring) in DSS-induced acute IBD mouse model; assay type: in vivo, male C57BL6 mice; settings: 50 μg/kg intragastrically, 7 days pre-administration, then daily together with 2.5 wt % DSS; x±SD; model group 7.4±0.6, blank control 0.0±0.0
Method: as §1, §2, §3, §4
Experimental data in the above experimental method were expressed as (x±SD), the GraphPad Prism (ver. 8.0, GraphPad Software Inc., San Diego, Calif., USA) was used to plot a chart, the SPSS Program (ver. 25.0, SPSS Inc., Chicago, Ill., USA) was used for statistical test, and one-way ANOVA or independent two-sample t-test were used for significance test when the normality and homogeneity of variances were met. […]

| Molecule | colon length (DSS-induced IBD in mice [1]) | colonic histopathologic score (DSS-induced IBD in mice [2]) |
| --- | --- | --- |
| THTVGSYFQVQNGYVGAFSRALGNNEYAMNS (THTVGSYFXVQNGYVGAFSXALGNXEYAMNS; Sequence is synthesized; (9)..(9) Xaa can be Tyr, Val, Gly, Ser, Gln, or absent; (20)..(20) Xaa can be Ser, Gln, Glu, Tyr, Arg, or absent; (25)..(25) Xaa can be Asn, Thr, Ser, Pro, Leu, or absent) [MP-D] | 8.0±0.9 | 1.3±0.6 |
| THTVGSYFSVQNGYVGAFSQALGNSEYAMNSPLGSLDGRTTMYNLLGVKYLFAREDQLKKQ (peptide, listed as Lactobacillus plantarum, positive control) THTVGSYFSVQNGYVGAFSQALGNSEYAMNSPLGSLDGRTTMYNLLGVKYLFAREDQLKKQ | 7.9±0.5 | 2.4±0.8 |
